Counter-ions that a name gives are not always drawn.
What follows are compounds tested against T1, α4β7 (adhesion of RPMI cells to CS-1) (Homo sapiens, UniProt P13612+P26010) (assay: RPMI-CS-1 cell adhesion assay). Conditions: adhesion of RPMI B-cell line (expresses α4β7) to CS-1 peptide coated microwells; read-out: RPMI-CS-1 IC50 value range.
T1 construct: endogenous in cells
T1 sequence (P13612 34-1032): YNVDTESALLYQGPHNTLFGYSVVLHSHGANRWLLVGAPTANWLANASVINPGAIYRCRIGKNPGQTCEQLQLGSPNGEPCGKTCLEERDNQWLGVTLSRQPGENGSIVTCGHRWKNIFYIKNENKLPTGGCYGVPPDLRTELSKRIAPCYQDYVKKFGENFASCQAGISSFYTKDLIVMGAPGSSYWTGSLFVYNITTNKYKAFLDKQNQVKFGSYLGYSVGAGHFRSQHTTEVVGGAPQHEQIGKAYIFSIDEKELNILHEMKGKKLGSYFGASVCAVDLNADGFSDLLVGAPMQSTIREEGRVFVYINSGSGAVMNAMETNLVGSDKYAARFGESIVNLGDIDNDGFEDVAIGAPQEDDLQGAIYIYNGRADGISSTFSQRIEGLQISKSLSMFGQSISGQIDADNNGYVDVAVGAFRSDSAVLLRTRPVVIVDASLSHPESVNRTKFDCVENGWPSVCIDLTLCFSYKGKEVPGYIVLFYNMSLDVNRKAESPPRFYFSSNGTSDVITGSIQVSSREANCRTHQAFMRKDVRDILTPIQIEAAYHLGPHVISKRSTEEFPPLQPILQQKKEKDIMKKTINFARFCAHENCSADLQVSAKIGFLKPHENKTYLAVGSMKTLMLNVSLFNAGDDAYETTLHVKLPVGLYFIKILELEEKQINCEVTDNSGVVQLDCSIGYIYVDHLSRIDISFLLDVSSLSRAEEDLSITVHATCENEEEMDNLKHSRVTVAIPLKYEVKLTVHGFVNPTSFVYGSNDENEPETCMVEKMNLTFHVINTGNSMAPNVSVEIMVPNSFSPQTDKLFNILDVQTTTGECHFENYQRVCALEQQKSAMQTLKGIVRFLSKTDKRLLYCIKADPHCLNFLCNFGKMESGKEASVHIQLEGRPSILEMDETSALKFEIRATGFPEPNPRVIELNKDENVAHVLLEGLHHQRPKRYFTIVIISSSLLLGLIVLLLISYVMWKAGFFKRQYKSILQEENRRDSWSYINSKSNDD
T1 sequence (P26010 20-798): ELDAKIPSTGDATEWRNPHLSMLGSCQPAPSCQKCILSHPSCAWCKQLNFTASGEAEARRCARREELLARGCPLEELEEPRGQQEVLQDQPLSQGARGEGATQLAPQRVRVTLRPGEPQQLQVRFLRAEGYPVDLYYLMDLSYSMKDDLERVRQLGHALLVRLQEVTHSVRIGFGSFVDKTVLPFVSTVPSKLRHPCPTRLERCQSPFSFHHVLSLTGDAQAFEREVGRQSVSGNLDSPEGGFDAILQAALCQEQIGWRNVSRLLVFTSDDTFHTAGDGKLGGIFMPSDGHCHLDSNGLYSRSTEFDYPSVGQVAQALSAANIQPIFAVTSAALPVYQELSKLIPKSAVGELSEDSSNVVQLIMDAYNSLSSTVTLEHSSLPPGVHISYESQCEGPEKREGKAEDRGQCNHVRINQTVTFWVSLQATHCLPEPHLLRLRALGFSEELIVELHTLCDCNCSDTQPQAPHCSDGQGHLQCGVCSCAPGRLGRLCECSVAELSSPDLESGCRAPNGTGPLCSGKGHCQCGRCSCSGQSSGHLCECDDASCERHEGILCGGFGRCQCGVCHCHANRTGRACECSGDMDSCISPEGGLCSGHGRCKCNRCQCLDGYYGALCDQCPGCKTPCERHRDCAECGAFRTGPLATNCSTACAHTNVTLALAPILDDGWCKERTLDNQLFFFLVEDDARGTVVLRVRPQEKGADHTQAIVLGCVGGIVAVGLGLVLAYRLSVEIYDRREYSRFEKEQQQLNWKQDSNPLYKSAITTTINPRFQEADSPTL
Assay type: cell-based
Protocol: RPMI-CS-1 Cell Adhesion Assay:
The test compounds were added in increasing concentrations to RPMI cells and then the cell-compound mixture was added to CS-1 coated microwells. The plates were incubated, washed and the percentage of attached cells were quantitated.
The CS-1 derived peptide, […], and the scrambled control peptide, […], were synthesized at Tanabe Research Laboratories, USA, Inc. on a Beckman 990 synthesizer using t-Boc methodology. […] Microtiter plates were coated with 20 μg/ml human serum albumin (HSA) for 2 hours at room temperature, washed once with PBS and derivatized with 10 μg/ml SPDP for 1 hour. […] Unbound peptide was removed from the plates by washing with PBS. To block non-reacted sites, the plates were coated with 100 μl of a 2.5 mg/ml BSA solution in PBS for one hour at 37° C. 100 μl of RPMI cells (2.5×10^6 cells/ml) in Dulbecco's Modified Eagles Medium (DMEM) plus 0.25% ovalbumin were added to peptide coated dishes and incubated for 1 hour at 37° C. […] To do this, the enzyme substrate p-nitrophenyl-N-acetyl-β-D-glucoseaminide is dissolved at 7.5 mM in 0.1 M citrate buffer pH 5 and then mixed with an equal volume of 0.5% Triton X100. 50 μl of the substrate solution was added to the plates and the plates were incubated at 37° C. for 60 minutes.
In this assay, IC50 value ranges (μM) are depicted by A, B, C and D. These ranges as follows. D>5≧C>1≧B>0.3≧A

IC50 [nM]	Structure (SMILES)
< 300	COc1ccccc1-c1ccc(C[C@H](NC(=O)c2ccc(O)cc2Cl)C(=O)O)cc1 [Example 209]
< 300	CCOC(=O)[C@H](Cc1ccc(-c2c(OC)cc(CN(C)C)cc2OC)cc1)NC(=O)c1c(Cl)cccc1Cl [Example 259, N-(2,6-Dichlorobenzoyl)-4-[2,6-dimethoxy-4-[(N,N-dimethylamino)methyl]phenyl]-L-phenylalanine ethyl ester hydrochloride]
1000 to 5000	Nc1cccc(-c2ccc(C[C@H](NC(=O)c3c(Cl)cccc3Cl)C(=O)O)cc2)c1 [Example 122]
300 to 1000	CNC(=O)c1ccccc1-c1ccc(C[C@H](NC(=O)c2c(Cl)cccc2Cl)C(=O)O)cc1 [Example 54, N-(2,6-Dichlorobenzoyl)-4-[2-(N-methylcarbamoyl)phenyl]-L-phenylalanine]
300 to 1000	Cc1ncc(COc2ccccc2-c2ccc(C[C@H](NC(=O)c3c(Cl)cccc3Cl)C(=O)O)cc2)s1 [Example 42]
300 to 1000	NC(=O)c1ccccc1-c1ccc(C[C@H](NC(=O)c2c(Cl)cccc2Cl)C(=O)O)cc1 [Example 60]
< 300	COc1cc(OC)c(-c2ccc(C[C@H](NC(=O)c3c(Cl)cccc3Cl)C(=O)O)cc2)c(OC)c1 [Example 11, N-(2,6-Dichlorobenzoyl)-4-(2,4,6-trimethoxyphenyl)-L-phenylalanine]
< 300	COc1c(F)cc(F)c(OC)c1-c1ccc(C[C@H](NC(=O)c2c(Cl)cccc2Cl)C(=O)O)cc1 [Example 153B, N-(2,6-dichlorobenzoyl)-4-(2,6-dimethoxy-3,5-difluorophenyl)-L-phenylalanine]
< 300	COc1cc(CN2CCN(C)CC2)cc(OC)c1-c1ccc(C[C@H](NC(=O)c2c(Cl)cccc2Cl)C(=O)O)cc1 [Example 248]
300 to 1000	COc1sccc1-c1ccc(C[C@H](NC(=O)c2c(Cl)cccc2Cl)C(=O)O)cc1 [Example 136]
1000 to 5000	O=C(NCCN1CCOCC1)c1ccccc1-c1ccc(C[C@H](NC(=O)c2c(Cl)cccc2Cl)C(=O)O)cc1 [Example 59, N-(2,6-Dichlorobenzoyl)-4-[2-[N-(2-morpholinoethyl)carbamoyl]phenyl]-L-phenylalanine]
< 300	COc1ccc(Br)c(OC)c1-c1ccc(C[C@H](NC(=O)c2c(Cl)cccc2Cl)C(=O)O)cc1 [Example 322, N-(2,6-Dichlorobenzoyl)-4-(2,6-dimethoxy-3-bromophenyl)-L-phenylalanine]
< 300	CN(C)CCOc1ccc2c(c1-c1ccc(C[C@H](NC(=O)c3c(Cl)cccc3Cl)C(=O)O)cc1)OCO2 [Example 234, N-(2,6-Dichlorobenzoyl)-4-[2,3-methylenedioxy-6-[2-(N,N-dimethylamino)ethoxy]phenyl]-L-phenylalanine]
< 300	COc1ccccc1-c1ccc(C[C@H](NC(=O)c2ccc(S(C)(=O)=O)cc2Cl)C(=O)O)cc1 [Example 211]
> 5000	O=C(N[C@@H](Cc1ccc(-c2ccccc2)cc1)C(=O)O)c1ccccc1[N+](=O)[O-] [Example 110]
< 300	COc1cccc(OC)c1-c1ccc(C[C@H](NC(=O)c2c(Cl)cccc2Cl)c2nnn[nH]2)cc1 [Example 270, (1S)-N-(2,6-Dichlorobenzoyl)-2-[4-(2,6-dimethoxyphenyl)phenyl]-1-(1H-tetrazol-5-yl) ethylamine]

IC50 [nM]	Structure (SMILES)
1000 to 5000	COc1ccccc1-c1ccc(C[C@H](NC(=O)[C@@H](C)c2ccccc2)C(=O)O)cc1 [Example 2, N-[(S)-2-Phenylpropionyl]-4-(2-methoxyphenyl)-L-phenylalanine]
1000 to 5000	COc1ccccc1-c1ccc(C[C@H](NC(=O)c2ccc(NC(=S)NCc3ccccc3)cc2Cl)C(=O)O)cc1 [Example 194, N-[4-(3-Benzylthioureido)-2-chlorobenzoyl]-4-(2-methoxyphenyl)-L-phenylalanine]
< 300	COc1cc(OCc2ccsc2)cc(OC)c1-c1ccc(C[C@H](NC(=O)c2c(Cl)cccc2Cl)C(=O)O)cc1 [Example 220, N-(2,6-Dichlorobenzoyl)-4-[2,6-dimethoxy-4-(3-thienylmethoxy)phenyl]-L-phenylalanine]
< 300	CCOc1cccc(OC)c1-c1ccc(C[C@H](NC(=O)c2c(Cl)cccc2Cl)C(=O)O)cc1 [Example 14, N-(2,6-Dichlorobenzoyl)-4-(2-ethoxy-6-methoxyphenyl)-L-phenylalanine]
300 to 1000	COc1ccccc1-c1ccc(C[C@H](NC(=O)c2cccc(NS(=O)(=O)C(F)(F)F)c2Cl)C(=O)O)cc1 [Example 181, N-[2-Chloro-3-[(trifluoromethanesulfonyl)amino]-benzoyl]-4-(2-methoxyphenyl)-L-phenylalanine]
< 300	COc1cc(N(C)C)cc(OC)c1-c1ccc(C[C@H](NC(=O)c2c(Cl)cccc2Cl)C(=O)O)cc1 [Example 164, N-(2,6-Dichlorobenzoyl)-4-[2,6-dimethoxy-4-(dimethylamino)phenyl]-L-phenylalanine]
> 5000	COc1ccccc1-c1ccc(C[C@H](NC(=O)c2ccc([N+](=O)[O-])cc2)C(=O)O)cc1 [Example 101]
300 to 1000	O=C(N[C@@H](Cc1ccc(-c2ccccc2OCc2ccncc2)cc1)C(=O)O)c1c(Cl)cccc1Cl [Example 39]
< 300	COc1ccccc1-c1ccc(C[C@H](NC(=O)c2ccc(NS(=O)(=O)c3ccccc3)cc2Cl)C(=O)O)cc1 [Example 68, N-[2-Chloro-4-(benzenesulfonylamino)benzoyl]-4-(2-methoxyphenyl)-L-phenylalanine]
300 to 1000	CN(C)C(=O)c1ccccc1-c1ccc(C[C@H](NC(=O)c2c(Cl)cccc2Cl)C(=O)O)cc1 [Example 58, N-(2,6-Dichlorobenzoyl)-4-[2-(N,N-dimethylcarbamoyl)phenyl]-L-phenylalanine]
1000 to 5000	CCCCCC(=O)Nc1cccc(-c2ccc(C[C@H](NC(=O)c3c(Cl)cccc3Cl)C(=O)O)cc2)c1 [Example 126]
< 300	COc1ccccc1-c1ccc(C[C@H](NC(=O)c2c(Cl)cccc2Cl)C(=O)O)cc1C(C)O (stereo partly drawn) [Example 73, N-(2,6-Dichlorobenzoyl)-3-(1-hydroxyethyl)-4-(2-methoxyphenyl)-L-phenylalanine]
< 300	COc1cc(C#N)c(-c2ccc(C[C@H](NC(=O)c3c(Cl)cccc3Cl)C(=O)O)cc2)c(OC)c1 [Example 142]
> 5000	COc1cccc(-c2ccc(C[C@H](NC(=O)c3c(Cl)cccc3Cl)C(=O)O)cc2)c1 [Example 119]
300 to 1000	COc1ccccc1-c1ccc(C[C@H](NC(=O)c2cccnc2Cl)C(=O)O)cc1 [Example 90]
